Results on 16 molecules are retold here after patent US8415356B2, “Isoquinolinone derivatives as NK3 antagonists” (H. Lundbeck A/S, priority 2008, dated 2013).

For one assay, the target named is T1, human NK3 receptor (Homo sapiens, UniProt P29371).
T1 construct: expressed in transfected cells; membranes prepared from them
T1 sequence (P29371 1-465): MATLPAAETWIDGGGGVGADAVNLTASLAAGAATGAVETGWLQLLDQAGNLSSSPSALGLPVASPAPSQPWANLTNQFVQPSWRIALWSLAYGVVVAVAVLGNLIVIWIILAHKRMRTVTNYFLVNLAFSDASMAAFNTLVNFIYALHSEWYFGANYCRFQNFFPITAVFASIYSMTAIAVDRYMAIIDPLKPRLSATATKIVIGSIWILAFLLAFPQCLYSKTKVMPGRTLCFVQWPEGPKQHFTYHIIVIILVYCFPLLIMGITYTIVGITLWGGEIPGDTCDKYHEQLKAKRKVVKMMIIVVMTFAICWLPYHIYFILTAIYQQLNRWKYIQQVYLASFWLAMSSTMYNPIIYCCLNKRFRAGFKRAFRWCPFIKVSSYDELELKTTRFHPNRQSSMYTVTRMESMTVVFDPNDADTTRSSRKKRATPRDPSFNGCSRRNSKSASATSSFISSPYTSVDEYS
The assay can be described thus: NK3 receptor binding assay (SPA-based competition binding with 125I-NKB). As to conditions: read-out: Affinity Ki/nM. As for the experimental part: Membrane preparation: BHK cells stably expressing the human NK3 receptor were seeded in harvesting plates in Dulbeccos MEM containing GlutaMax (862 mg/l), 1 mM sodium pyruvate, 10% fetal calf serum, 1% Pen/Strep, 1 mg/ml G418 and were grown at 34° C. in a humidified atmosphere containing 10% CO2. To increase receptor expression, 10 μM trichotatin A was added to the media 24 hours before harvest of the cells at a confluency of app 90%. Prior to the harvesting, the cells were washed twice with PBS without Mg^2+ og Ca^2+ and subsequently scrapped of in 10 ml PBS pr harvesting plate. The cells suspension were centrifuged at 1500×G in three minutes before resuspension in 15 mM Tris-HCl pH 7.5 buffer containing 2 mM MgCl2; 0.3 mM EDTA and 1 mM EGTA (buffer A). The cell suspention was homogenised and subsequently centrifuged at 40000×G in 30 minutes. The membrane-pellet was resuspended in buffer A containing 250 mM sucrose, aliquoted and stored at −80° C.
Affinity assay description: The assay was performed as a SPA-based competition-binding assay in a 50 mM Tris pH 7.4 assay buffer containing 120 mM NaCl, 3 mM MnCl2, 40 μg/ml bacitracin, 2 μg/ml Chymostatin, 1 μg/ml Phosphoramidon and 4 μg/ml Leupeptin. […] The assay plate was subsequently under agitation incubated for 90 min at RT. The plate was centrifugated 10 minutes at 500×G and counted in a topcounter 5 minutes pr well.

The conditions of assay [1]: versus placebo; delusions, hallucinations and paranoia; cited from earlier work.
For assay [2] the following is noted: schizophrenics; cited from earlier work.

With `Cc1c(C(=O)N[C@H](c2cccc(F)c2)C2CC2)c2cccc(F)c2c(=O)n1-n1cccc1` [2ac, 8-Fluoro-3-methyl-1-oxo-2-pyrrol-1-yl-1,2-dihydro-isoquinoline-4-carboxylic acid [(S)-cyclopropyl-(3-fluoro-phenyl)-methyl]-amide], the Ki at human NK3 receptor worked out at 96 nM.
Same read-out and setting: the figure for `Cc1c(C(=O)N[C@H](c2cccc(F)c2)C2CC2)c2cccc(F)c2c(=O)n1-c1ccccn1` [2b, 8-Fluoro-3-methyl-1-oxo-2-pyridin-2-yl-1,2-dihydro-isoquinoline-4-carboxylic acid [(S)-cyclopropyl-(3-fluoro-phenyl)-methyl]-amide] is 150 nM; for `Cc1c(C(=O)N[C@H](c2cccc(F)c2)C2CC2)c2cccc(F)c2c(=O)n1-c1ccc(Cl)nc1` [2d, 2-(6-Chloro-pyridin-3-yl)-8-fluoro-3-methyl-1-oxo-1,2-dihydro-isoquinoline-4-carboxylic acid [(S)-cyclopropyl-(3-fluoro-phenyl)-methyl]-amide] it is 120 nM.
In the case of `Cc1c(C(=O)N[C@H](c2cccc(F)c2)C2CC2)c2cccc(F)c2c(=O)n1-c1cncnc1` [2k, 8-Fluoro-3-methyl-1-oxo-2-pyrimidin-5-yl-1,2-dihydro-isoquinoline-4-carboxylic acid [(S)-cyclopropyl-(3-fluoro-phenyl)-methyl]-amide], the Ki on human NK3 receptor is 110 nM.
The same measure, in the same setting: the result for `Cc1ccc(-n2c(C)c(C(=O)N[C@H](c3cccc(F)c3)C3CC3)c3cccc(F)c3c2=O)cn1` [2l, 8-Fluoro-3-methyl-2-(6-methyl-pyridin-3-yl)-1-oxo-1,2-dihydro-isoquinoline-4-carboxylic acid [(S)-cyclopropyl-(3-fluoro-phenyl)-methyl]-amide] reads 220 nM; that for `Cc1csc(-n2c(C)c(C(=O)N[C@H](c3cccc(F)c3)C3CC3)c3cccc(F)c3c2=O)n1` [2r, 8-Fluoro-3-methyl-2-(4-methyl-thiazol-2-yl)-1-oxo-1,2-dihydro-isoquinoline-4-carboxylic acid [(S)-cyclopropyl-(3-fluoro-phenyl)-methyl]-amide], 150 nM; that for `Cc1c(C(=O)N[C@H](c2cccc(F)c2)C2CC2)c2cccc(F)c2c(=O)n1-n1cnnc1` [2u, 8-Fluoro-3-methyl-1-oxo-2-[1,2,4]triazol-4-yl-1,2-dihydro-isoquinoline-4-carboxylic acid [(S)-cyclopropyl-(3-fluoro-phenyl)-methyl]-amide], 200 nM.
Take `CCc1nnc(-n2c(C)c(C(=O)N[C@H](c3cccc(F)c3)C3CC3)c3cccc(F)c3c2=O)s1` [2v, 2-(5-Ethyl-[1,3,4]thiadiazol-2-yl)-8-fluoro-3-methyl-1-oxo-1,2-dihydro-isoquinoline-4-carboxylic acid [(S)-cyclopropyl-(3-fluoro-phenyl)-methyl]-amide]: the Ki on human NK3 receptor amounted to 210 nM.
Take `Cc1c(C(=O)N[C@H](c2cccc(F)c2)C2CCC2)c2cccc(F)c2c(=O)n1-c1ccn(C)n1` [3f, 8-Fluoro-3-methyl-2-(1-methyl-1H-pyrazol-3-yl)-1-oxo-1,2-dihydro-isoquinoline-4-carboxylic acid [(S)-cyclobutyl-(3-fluoro-phenyl)-methyl]-amide]: the Ki at human NK3 receptor worked out at 71 nM.
Same read-out and setting: the result for `Cc1c(C(=O)N[C@H](c2ccccc2)C2CCC2)c2cccc(F)c2c(=O)n1-c1cccnc1` [4a, 8-Fluoro-3-methyl-1-oxo-2-pyridin-3-yl-1,2-dihydro-isoquinoline-4-carboxylic acid ((S)-cyclobutyl-phenyl-methyl)-amide] reads 18 nM; that for `CC(C)(C)N1CCN(Cc2c(C(=O)N[C@H](c3cccc(F)c3)C3CC3)c3cccc(F)c3c(=O)n2-c2cccnc2)CC1` [6a, 3-(4-tert-Butyl-piperazin-1-ylmethyl)-8-fluoro-1-oxo-2-pyridin-3-yl-1,2-dihydro-isoquinoline-4-carboxylic acid [(S)-cyclopropyl-(3-fluoro-phenyl)-methyl]-amide], 13 nM.
Still for that read-out and setting: the figure for `O=C(N[C@H](c1cccc(F)c1)C1CC1)c1c(CN2CCCC2=O)n(-c2cccnc2)c(=O)c2c(F)cccc12` [6b, 8-Fluoro-1-oxo-3-(2-oxo-pyrrolidin-1-ylmethyl)-2-pyridin-3-yl-1,2-dihydro-isoquinoline-4-carboxylic acid [(S)-cyclopropyl-(3-fluoro-phenyl)-methyl]-amide] is 110 nM.
On the same count and under the same terms, the result for `Cc1c(C(=O)N[C@H](c2cccc(F)c2)C2CCC2)c2cc(F)cc(F)c2c(=O)n1-c1cccnc1` [7c, 6,8-Difluoro-3-methyl-1-oxo-2-pyridin-3-yl-1,2-dihydro-isoquinoline-4-carboxylic acid [(S)-cyclobutyl-(3-fluoro-phenyl)-methyl]-amide] reads 15 nM; that for `Cc1c(C(=O)N[C@H](c2cccc(F)c2)C2CC2)c2cccc(O)c2c(=O)n1-c1cccnc1` [8a, 8-Hydroxy-3-methyl-1-oxo-2-pyridin-3-yl-1,2-dihydro-isoquinoline-4-carboxylic acid [(S)-cyclopropyl-(3-fluoro-phenyl)-methyl]-amide], 33 nM.
As to `CC(=O)N(C)C1(c2ccccc2)CCN(CCC[C@]2(c3ccc(Cl)c(Cl)c3)CCCN(C(=O)c3ccccc3)C2)CC1` [Osanetant, osanetant], in assay [1], the “effect in clinical trials, in particular on positive symptoms of psychosis” value is “superior to placebo”.
Turning to `CC[C@H](NC(=O)c1c(O)c(-c2ccccc2)nc2ccccc12)c1ccccc1` [talnetant], in assay [2], the “effect in clinical trials on cognitive behaviour” value was “ameliorate the cognitive behaviour”.
